{"source": "patent US20250387410A1", "about": "“TREATMENT OF ANTI-VEGF REFRACTORY OPHTHALMIC RETINAL EYE CONDITIONS” (Eye Co Pty Ltd., priority 2022, published 2025)", "key": {"[1]": {"test_system": "Il-1b-stimulated MIO-M1 cells", "experiment": "Co-incubation with selective receptor antagonists in Il-1b-stimulated MIO-M1 cells", "format": "cell-based, human", "settings": "co-incubation with FA + IL-1β, compared to Il1b and FA alone", "protocol": "FIG. 3 Contribution of glucocorticoid and mineralocorticoid receptor signalling to the anti-inflammatory effect of FA in vitro.\nIL-1β and TNF-α were administered to MIO-M1 cells to initiate an inflammatory response in order to test the anti-inflammatory properties of the selected corticosteroids. MIO-M1 cells were grown to a cell density of 50,000 cells per well in a 24 well plate using growth media and foetal bovine serum as described (Section 2.1.1). MIO-M1 cells were challenged with either 1 ng/μl of IL-1β or TNF-α (R&D Systems, MN, USA). Experimental wells were treated with either 1 μg/μl FA, TA or Dexamethasone. Twelve hours post addition, growth medium was removed from each well and replaced with 860 μl of TRIzol (Thermo Fisher Scientific, MA, USA), agitated approximately 20 times and then placed in a clean 1.5 ml Eppendorf tube to extract ribonucleic acid (RNA).\nFollowing purification of RNA, cDNA was synthesized using the Bioline Tetro kit (Bioline, Australia) as per the manufacturer's instructions. Quantitative Real Time Polymerase Chain Reaction (QRT-PCR) was undertaken to profile gene expression changes in animal and cell culture samples. TaqMan hydrolysis probes (Applied Biosystems, USA) and Gene Expression Master Mix (Applied Biosystems, USA) were used. A clear 384 well plate (Applied Biosystems, USA) was used with each biological sample plated in duplicate. A reaction mixture per sample was set up and included 0.5 μl cDNA, 4 μl Rnase Free Water, 5 μl Gene Expression Master Mix and 0.5 μl Taqman Primer Probe (Thermo Fisher Scientific), as listed in Table 2.5. The amplification of each sample was undertaken using a QuantStudio 12K Flex QRT-PCR machine (Applied Biosystems, USA). GAPDH was used as the reference gene using the comparative cycle threshold (Ct) method (ΔΔCt), as it is known not to change expression following retinal photo-oxidative damage. Data was analysed using the QuantStudio 12K Flex Software (Applied Biosystems, USA)."}, "[2]": {"test_system": "661W cells", "experiment": "MTT assay, cell viability of 661W cells", "format": "cell-based, human", "description": "(§1) The immortalised retinal cells used were as follows: MIO-M1 cells (Muller cell-derived; Müller 1 Moorefields, Institute of Ophthalmology, Dr A. Limb, Institute of Ophthalmology, University College, UK); ARPE19 (RPE-derived; ATCC CRL-2302, American Tissue Culture Collection, VA, USA); and 661W cells (photoreceptor-like derived; kindly gifted by Dr Muayyad R. Al-Ubaidi, Department of Cell Biology, University of Oklahoma Health Sciences Centre, Oklahoma City, OK, USA). Cells were authenticated and validated from Cell Bank Australia.\n(§2) The immortalised retinal cell lines MIO-M1, 661W and ARPE19 were used to undertake the MTT assay to assess cell metabolic activity, based on the cell's availability of NAPDH. Treatments included exposure to one of FA (10-0.01 μg/μl, provided by Professor Ben Boyd, Monash University, Australia), TA (10-0.01 μg/p, Honeywell, USA) and Dexamethasone (10-0.0001 μg/μl, Sigma-Aldrich, MO, USA). All corticosteroids used in vitro were dissolved in 20% dimethyl sulfoxide (DMSO) (Sigma-Aldrich, MO, USA) and ultrapure endotoxin 0.1M PBS (Thermo Fisher Scientific, MA, USA). At the 12-hour time point following addition of the corticosteroid, 10p of MTT reagent (Roche, Switzerland) was added to each well. To protect against light, plates were wrapped in foil and stored in the dark at 37° C. for 4 hours at 5.0% CO2. Cells were monitored using a bright field Zeiss Axiovert 200 inverted microscope (Carl Zeiss Meditec, Dublin, CA. USA) for formation of insoluble purple formazan precipitate crystals in viable cells. Subsequently 100p of MTT solubilisation solution was added and once again incubated in darkness at 37° C., 5.0% CO2 for 24 hours. Quantification of the MTT assay was performed by measuring the absorbance at 570 nm using Tecan Infinite® 200 PRO (Tecan, Mannedorf, Switzerland)."}, "[3]": {"test_system": "C57BL/6J mice, photo-oxidative damage (PD)", "experiment": "Photo-oxidative damage (PD) model of retinal degeneration, intravitreal injection", "format": "in vivo, mouse", "description": "All experiments conducted were in accordance with the ARVO Statement for Use of Animals in Ophthalmic and Vision Research, and with approval from the ANU Animal Experimentation Ethics Committee (AEEC, protocol #A2014/56). C57BL/6J mice aged 60 post-natal days were used in this study. Animals were born, reared and held under dim light conditions (5 lux) prior to photo-oxidative damage.\nIn vivo cross-sectional and fundus images of the mouse retina were acquired using Optical Coherence Tomography (OCT).\nIntravitreal injections were performed on C57BL/6J mice aged 60 post-natal days. Treatments included exposure to FA or TA dissolved in Suspension (comprised of 0.5% w/v carboxymethyl cellulose and 0.4% v/v Tween 80). The final concentration of drug in the vitreous chamber is estimated to be as 1 mg/ml.\nAge-matched C57BL/6J mice (60 post-natal days) were exposed to continuous 100K lux white LED light for 5 days with access to food and water ad libitum. During this time, 1% atropine sulphate (Minims 1% atropine sulphate eye drops; Bausch and Lomb, USA) was administered to both eyes twice daily to dilate the pupils. Animals were subsequently euthanised with carbon dioxide (CO2).\nElectroretinography (ERG) was used to assess the retinal function response of rodents to full-field flash stimuli under scotopic conditions. Dim-reared control and photo-oxidative damaged animals were used, using known methods.\nAnimals were dark-adapted overnight before the commencement of ERG experiments. Animals were anaesthetised as previously described, and all retinal recordings were undertaken in a dark room with minimal red light source.\nTerminal deoxynucleotidyl transferase (Tdt) dUTP nick end labelling (TUNEL) is an established technique used to detect apoptotic and necrotic cells.\nThe retina was evenly divided into 8 quadrants. Each quadrant was viewed using a confocal microscope (LSM 5, Zeiss, Germany) and TUNEL^+ and IBA1^+ cells were identified and counted. Data were graphed and analysed using Prism 6 software (GraphPad Software, CA, USA)."}, "[4]": {"test_system": "ARPE19 cells", "experiment": "MTT assay, cell viability of ARPE19 cells", "format": "cell-based, human", "description": "as §1, §2"}, "[5]": {"test_system": "MIO-M1 cells", "experiment": "MTT assay, cell viability of MIO-M1 cells", "format": "cell-based, human", "description": "as §1, §2"}, "[6]": {"settings": "10 ug/uL, compared to DMSO-only group"}, "[7]": {"settings": "10-0.01 μg/μl, 12 h, compared to DMSO-only group"}}, "note": "Entries after “also recorded” stand apart in the source; their conditions may differ."}
{"molecule": "CC#C[C@]1(O)CC[C@H]2[C@@H]3CCC4=CC(=O)CCC4=C3[C@@H](c3ccc(N(C)C)cc3)C[C@@]21C", "note": "[RU486, Mifepristone]", "values": [{"measurement": "effect of receptor antagonist on FA-mediated suppression of Ccl2, Il-6, and Il-8", "setting": "[1]", "value": "negated; also recorded: completely abrogate"}]}
{"molecule": "C[C@]12CC[C@@H]3c4ccc(O)cc4C[C@@H](CCCCCCCCC[S+]([O-])CCCC(F)(F)C(F)(F)F)[C@H]3[C@@H]1CC[C@@H]2O", "note": "(some centres unmarked) [ICI182780]", "values": [{"measurement": "effect of receptor antagonist on FA-mediated suppression of Ccl2, Il-6, and Il-8", "setting": "[1]", "value": "did not alter"}]}
{"molecule": "CC1(C)O[C@@H]2C[C@H]3[C@@H]4CCC5=CC(=O)C=C[C@]5(C)[C@@]4(F)[C@@H](O)C[C@]3(C)[C@]2(C(=O)CO)O1", "note": "[TA, triamcinolone acetonide]", "values": [{"measurement": "viability of 661W cells at 1 μg/μl", "setting": "[2]; 1 μg/μl", "value": "does not significantly alter cell viability"}, {"measurement": "viability of 661W cells at the highest concentration", "setting": "[2]; [6]", "value": "slight reduction"}, {"measurement": "viability of 661W cells (MTT assay)", "setting": "[2]; [7]", "value": "do not induce toxicity; also recorded: did not have significant effect"}, {"measurement": "a-wave and b-wave ERG responses", "setting": "[3]; 5 days PD, intravitreal, scotopic, versus controls", "value": "indistinguishable from PD controls/untreated animals"}, {"measurement": "photoreceptor survival in PD", "setting": "[3]; intravitreal injection, mice", "value": "no significant effect"}, {"measurement": "viability of ARPE19 cells at 1 μg/μl", "setting": "[4]; 1 μg/μl", "value": "does not significantly alter cell viability"}, {"measurement": "viability of ARPE-19 cells (MTT assay)", "setting": "[4]; [7]", "value": "do not induce toxicity; also recorded: did not have significant effect"}, {"measurement": "viability of MIO-M1 cells at 1 μg/μl", "setting": "[5]; 1 μg/μl", "value": "does not significantly alter cell viability"}, {"measurement": "viability of MIO-M1 cells at the highest concentration", "setting": "[5]; [6]", "value": "slight reduction"}, {"measurement": "viability of MIO-M1 cells (MTT assay)", "setting": "[5]; [7]", "value": "do not induce toxicity; also recorded: did not have significant effect"}]}
{"molecule": "CCC[C@@H]1CC2=CC(=O)CC[C@]2(C)[C@H]2CC[C@@]3(C)[C@@H](CC[C@@]3(O)CCC(=O)[O-])[C@H]12.[K+]", "note": "[RU28318]", "values": [{"measurement": "effect of receptor antagonist on FA-mediated suppression of Ccl2, Il-6, and Il-8", "setting": "[1]", "value": "did not significantly alter"}]}
{"molecule": "N#Cc1ccc([C@H]2CCCC[C@H]2O)cc1C(F)(F)F", "note": "[PF998425]", "values": [{"measurement": "effect of receptor antagonist on FA-mediated suppression of Ccl2, Il-6, and Il-8", "setting": "[1]", "value": "did not alter"}]}
